The target of test [1] is GST-tagged human ROCK1 catalytic domain 1-477 (Homo sapiens (Human), UniProt Q13464). Nature of the test: Inhibition of Rho-associated protein kinase isoform 1 (LANCE Ultra ULight-CREBtide FRET kinase assay). In kind it is biochemical. The note with it: 30 μM was the highest concentration analyzed. How it is done:
(§1) Exemplary compounds were tested for ability to inhibit Rho-associated protein kinase isoform 1 (ROCK1) and Rho-associated protein kinase isoform 2 (ROCK2). Assay procedures and results are described below.
(§2) Protein constructs were purified from a baculovirus expression system. The peptide substrate was fluorescent LANCE® Ultra ULight-CREBtide: […] (PerkinElmer, # TRF0107-D). […] After a 90 minute incubation at room temperature on a shaker table, the kinase reaction was stopped by addition of 10 mM EDTA, and phosphorylation of the substrate was detected by adding 1 nM LANCE® Ultra Europium-anti-phospho-CREB (ser133) antibody (PerkinElmer, # TRF0200-D) and incubating for 60 minutes on a shaker at room temperature. The flurorescence resonance energy transfer (FRET) signals were read and analyzed on an Envision™ 2103 Multilabel Reader (Perkin Elmer).
(Time-resolved FRET reads energy transfer from a long-lived donor to a nearby acceptor.)

In test [2] the target is GST-tagged human ROCK2 catalytic domain 1-553 (Homo sapiens (Human), UniProt O75116). Nature of the test: Inhibition of Rho-associated protein kinase isoform 2 (LANCE Ultra ULight-CREBtide FRET kinase assay). As to conditions: for IC50: 30 μM was the highest concentration analyzed; for Selectivity for ROCK2 over ROCK1 (IC50 ROCK1 / IC50 ROCK2): selectivity ROCK2 vs ROCK1. In kind it is biochemical. How it is done:
as §1, §2

Chain of GST-tagged human ROCK2 catalytic domain 1-553 (O75116 1-553): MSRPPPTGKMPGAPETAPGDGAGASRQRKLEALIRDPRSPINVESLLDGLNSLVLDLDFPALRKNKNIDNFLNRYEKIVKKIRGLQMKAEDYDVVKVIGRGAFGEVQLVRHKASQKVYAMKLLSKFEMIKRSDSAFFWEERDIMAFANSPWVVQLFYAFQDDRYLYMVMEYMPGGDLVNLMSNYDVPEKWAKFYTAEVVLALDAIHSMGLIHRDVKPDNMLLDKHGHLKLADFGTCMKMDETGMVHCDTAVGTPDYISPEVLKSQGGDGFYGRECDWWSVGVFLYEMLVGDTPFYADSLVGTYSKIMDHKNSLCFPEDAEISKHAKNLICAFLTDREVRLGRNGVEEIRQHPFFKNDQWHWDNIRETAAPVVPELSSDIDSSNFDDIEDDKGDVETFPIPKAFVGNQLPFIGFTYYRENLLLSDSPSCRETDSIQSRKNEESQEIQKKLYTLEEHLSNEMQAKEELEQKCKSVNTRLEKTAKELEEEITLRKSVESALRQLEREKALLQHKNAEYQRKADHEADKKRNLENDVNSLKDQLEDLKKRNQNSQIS
Chain of GST-tagged human ROCK1 catalytic domain 1-477 (Q13464 1-477): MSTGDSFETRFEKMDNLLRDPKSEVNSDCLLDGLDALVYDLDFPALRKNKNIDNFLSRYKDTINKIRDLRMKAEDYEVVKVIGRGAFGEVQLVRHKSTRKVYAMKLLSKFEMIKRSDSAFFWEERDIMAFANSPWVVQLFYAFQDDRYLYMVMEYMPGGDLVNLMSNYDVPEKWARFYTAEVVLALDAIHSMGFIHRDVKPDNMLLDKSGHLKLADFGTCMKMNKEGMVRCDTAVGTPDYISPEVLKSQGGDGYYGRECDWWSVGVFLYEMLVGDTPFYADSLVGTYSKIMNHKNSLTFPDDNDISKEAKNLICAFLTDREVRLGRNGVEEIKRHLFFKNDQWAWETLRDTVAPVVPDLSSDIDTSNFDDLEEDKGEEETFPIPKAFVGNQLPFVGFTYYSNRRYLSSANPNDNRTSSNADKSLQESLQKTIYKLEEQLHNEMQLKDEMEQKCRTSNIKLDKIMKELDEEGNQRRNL

Molecule `Clc1c(Nc2nnc(-c3cccn4cc(-c5ccc(Br)cc5)nc34)s2)ccc2[nH]ncc12` [Example 52E] showed an IC50 in test [1] above 30 µM. In test [2], the IC50 was below 1 µM and the “Selectivity for ROCK2 over ROCK1 (IC50 ROCK1 / IC50 ROCK2)” value (“Selectivity … (IC50 ROCK1 / IC50 ROCK2)” below) is reported as above 100.

In turn, `O=C(O)C(F)(F)F.Oc1cccc(-c2cccc(-c3nnc(Nc4ccc5[nH]ncc5c4Cl)s3)c2)n1` [Example 46B] had an IC50 in test [1] above 30 µM. Moreover, in test [2], the IC50 was below 1 µM and the “Selectivity … (IC50 ROCK1 / IC50 ROCK2)” value is on record as above 100.

As for `NCc1cncc(C(=O)Nc2cccc(-c3nnc(Nc4ccc5[nH]ncc5c4)s3)c2)c1.O=C(O)C(F)(F)F` [Example 35CF], the IC50 in test [1] is 1 to 15 µM; in test [2], below 1 µM. Moreover, in test [2], the “Selectivity … (IC50 ROCK1 / IC50 ROCK2)” value was above 5.

Turning to `Cn1cc(C(=O)Nc2cncc(-c3nnc(Nc4ccc5[nH]ncc5c4Cl)s3)c2)cn1` [Example 35BU], the IC50 in test [1] and in test [2] was below 1 µM in each case. For the same molecule, the “Selectivity … (IC50 ROCK1 / IC50 ROCK2)” value in test [2] is given as above 5.

For the molecule `COc1cccc(-c2cccc(-c3nnc(Nc4ccc5[nH]ncc5c4Cl)s3)c2)n1` [Example 46H], the IC50 in test [1] is above 30 µM. Also, in test [2], the half-inhibitory concentration (IC50) was below 1 µM and the “Selectivity … (IC50 ROCK1 / IC50 ROCK2)” value was above 100.

Turning to `C=Cc1c(Nc2nnc(-c3cccc(NC(C)=O)c3)s2)ccc2[nH]ncc12.O=C(O)C(F)(F)F` [Example 35K], the IC50 in test [1] lay in the range of 1 to 15 µM. Also, in test [2], the IC50 is below 1 µM and the “Selectivity … (IC50 ROCK1 / IC50 ROCK2)” value is reported as above 5.

With `CCS(=O)(=O)Nc1cncc(-c2nnc(Nc3ccc4[nH]ncc4c3)s2)c1` [Example A-14], the IC50 in test [1] fell in the range of 1 to 15 µM. For the same molecule, in test [2], the IC50 was 1 to 15 µM and the “Selectivity … (IC50 ROCK1 / IC50 ROCK2)” value is listed as above 5.

For the molecule `Cc1ccc(CC(=O)Nc2cccc(-c3nnc(Nc4ccc5[nH]ncc5c4Cl)s3)c2)nc1` [Example 35AO], in test [1], the 50% inhibitory concentration (IC50) is above 30 µM. Besides, in test [2], the IC50 was below 1 µM and the “Selectivity … (IC50 ROCK1 / IC50 ROCK2)” value is on record as above 100.

With `Cc1coc(-c2cc(F)cc(-c3nnc(Nc4ccc5[nH]ncc5c4Cl)s3)c2)n1` [Example 46D], in test [1], the IC50 was above 30 µM. In addition, in test [2], the IC50 was below 1 µM and the “Selectivity … (IC50 ROCK1 / IC50 ROCK2)” value is recorded as above 100.

In the case of `O=C(Nc1cc(-c2nnc(Nc3ccc4[nH]ncc4c3)s2)ccn1)c1c[nH]cn1` [Example A-32], the IC50 was above 30 µM in test [1] and below 1 µM in test [2]. For the same molecule, the “Selectivity … (IC50 ROCK1 / IC50 ROCK2)” value in test [2] is on record as above 100.

In test [1], `Nc1cncc(-c2nnc(Nc3ccc4[nH]ncc4c3)s2)n1` [Example A-13] came in with an IC50 above 30 µM. In addition, in test [2], the IC50 was in the range of 1 to 15 µM and the “Selectivity … (IC50 ROCK1 / IC50 ROCK2)” value was above 5.

`CC(=O)Nc1cc(CSC(C)=O)cc(-c2nnc(Nc3ccc4[nH]ncc4c3Cl)s2)c1` [Example 47, (S)-(3-Acetamido-5-(5-((4-chloro-1H-indazol-5-yl)amino)-1,3,4-thiadiazol-2-yl)benzyl)ethanethioate] returned a 50% inhibitory concentration (IC50) in test [1] above 30 µM. Further, in test [2], the IC50 was below 1 µM and the “Selectivity … (IC50 ROCK1 / IC50 ROCK2)” value was above 100.

Turning to `O=[N+]([O-])c1cccc(-c2nnc(Nc3ccc4[nH]ncc4c3)s2)c1` [Example 75O], the IC50 in test [1] and in test [2] was 1 to 15 µM each time.

With `CC(C(=O)Nc1cccc(-c2nnc(Nc3ccc4[nH]ncc4c3Cl)s2)c1)c1ccccn1` (stereo not drawn) [Example 35AH], the IC50 in test [1] and in test [2] was below 1 µM each time. Also, the “Selectivity … (IC50 ROCK1 / IC50 ROCK2)” value in test [2] is listed as below 5.

As to `Cn1cc(C(=O)Nc2cc(-c3nnc(Nc4ccc5[nH]ncc5c4Cl)s3)ccc2C(F)(F)F)cn1` [Example 48N], the IC50 in test [1] is above 30 µM. In test [2], the concentration for half-maximal inhibition (IC50) was below 1 µM and the “Selectivity … (IC50 ROCK1 / IC50 ROCK2)” value is on record as above 100.

With `Cn1ccc(C(=O)Nc2cccc(-c3nnc(Nc4ccc5[nH]ncc5c4)s3)c2)n1` [Example A-42], the IC50 in test [1] is below 1 µM. Also, in test [2], the IC50 was below 1 µM and the “Selectivity … (IC50 ROCK1 / IC50 ROCK2)” value is above 5.

`c1cnc(-c2nnc(Nc3ccc4[nH]ncc4c3)s2)cn1` [Example A-25] came in with an IC50 in test [1] above 30 µM. In test [2], the concentration for half-maximal inhibition (IC50) is 1 to 15 µM and the “Selectivity … (IC50 ROCK1 / IC50 ROCK2)” value was above 5.

Turning to `CC(=O)Nc1cc(-c2nnc(Nc3ccc4[nH]ncc4c3Cl)s2)ccn1.O=C(O)C(F)(F)F` [Example 35AE], in test [1], the half-maximal inhibitory concentration (IC50) was below 1 µM. Besides, in test [2], the IC50 is below 1 µM and the “Selectivity … (IC50 ROCK1 / IC50 ROCK2)” value is recorded as below 5.

In test [1], `CC(C(=O)Nc1cc(-c2nnc(Nc3ccc4[nH]ncc4c3Cl)s2)ccn1)c1ccc(F)cc1` (stereo not drawn) [Example 34, N-(4-(5-((4-Chloro-1H-indazol-5-yl)amino)-1,3,4-thiadiazol-2-yl)pyridin-2-yl)-2-(4-fluorophenyl)propanamide] yielded an IC50 below 1 µM. In addition, in test [2], the IC50 was below 1 µM and the “Selectivity … (IC50 ROCK1 / IC50 ROCK2)” value is on record as above 50.

In turn, `O=C(O)c1ccc(-c2cn3cccc(-c4nnc(Nc5ccc6[nH]ncc6c5Cl)s4)c3n2)cc1` [Example 50E] returned an IC50 in test [1] above 30 µM. For the same molecule, in test [2], the IC50 was below 1 µM and the “Selectivity … (IC50 ROCK1 / IC50 ROCK2)” value was above 100.

Consider `O=C(O)C(F)(F)F.OCc1cc(-c2ncco2)cc(-c2nnc(Nc3ccc4[nH]ncc4c3Cl)s2)c1` [Example 41C], for which the 50% inhibitory concentration (IC50) in test [1] was below 1 µM. In test [2], the IC50 was below 1 µM and the “Selectivity … (IC50 ROCK1 / IC50 ROCK2)” value is given as above 5.

Turning to `CC(C)(O)CNC(=O)c1cccc(-c2nnc(Nc3ccc4[nH]ncc4c3Cl)s2)c1` [Example 75F], the IC50 in test [1] was 1 to 15 µM; in test [2], below 1 µM. Also, the “Selectivity … (IC50 ROCK1 / IC50 ROCK2)” value in test [2] is listed as above 5.

Turning to `CC(=O)Nc1cccc(-c2nnc(Nc3ccc4[nH]ncc4c3C(F)(F)F)s2)c1` [Example 35AL], the IC50 in test [1] lay in the range of 1 to 15 µM. In test [2], the 50% inhibitory concentration (IC50) was below 1 µM and the “Selectivity … (IC50 ROCK1 / IC50 ROCK2)” value was above 5.

In test [1], `c1cc(-c2ncco2)cc(-c2nnc(Nc3ccc4[nH]ncc4c3)s2)c1` [Example A-30] had an IC50 above 30 µM. In addition, in test [2], the IC50 was below 1 µM and the “Selectivity … (IC50 ROCK1 / IC50 ROCK2)” value was above 100.

Molecule `O=C(Nc1cccc(-c2nnc(Nc3ccc4[nH]ncc4c3Cl)s2)c1)c1ccc(F)cc1` [Example 35AW] came in with an IC50 in test [1] below 1 µM. Moreover, in test [2], the IC50 is below 1 µM and the “Selectivity … (IC50 ROCK1 / IC50 ROCK2)” value is reported as above 5.

Molecule `Cn1cc(C(=O)Nc2cc(C(=O)O)cc(-c3nnc(Nc4ccc5[nH]ncc5c4Cl)s3)c2)cn1` [Example 48AC] had a 50% inhibitory concentration (IC50) in test [1] below 1 µM. For the same molecule, in test [2], the IC50 is below 1 µM and the “Selectivity … (IC50 ROCK1 / IC50 ROCK2)” value was above 5.

Take `CC(C)NC(=O)COc1cccc(-c2nnc(Nc3ccc4[nH]ncc4c3)s2)c1` [Example A-23]: in test [1], the IC50 was above 30 µM. In test [2], the IC50 is below 1 µM and the “Selectivity … (IC50 ROCK1 / IC50 ROCK2)” value was above 50.

Molecule `Cn1cc(C(=O)Nc2cc(-c3nnc(Nc4ccc5[nH]ncc5c4Cl)s3)ccc2Br)cn1` [Example 48Y] had an IC50 in test [1] above 30 µM. In addition, in test [2], the IC50 is below 1 µM and the “Selectivity … (IC50 ROCK1 / IC50 ROCK2)” value is listed as above 100.

With `CC(C)(O)c1ccc(-c2cn3cccc(-c4nnc(Nc5ccc6[nH]ncc6c5Cl)s4)c3n2)cc1` [Example 50F], the IC50 in test [1] and in test [2] was below 1 µM each time. Also, the “Selectivity … (IC50 ROCK1 / IC50 ROCK2)” value in test [2] is given as above 5.

`O=C(Nc1cccc(-c2nnc(Nc3ccc4[nH]ncc4c3)s2)c1)C(O)CO` (stereo not drawn) [Example 35CI] displayed an IC50 in test [1] below 1 µM. In test [2], the IC50 was below 1 µM and the “Selectivity … (IC50 ROCK1 / IC50 ROCK2)” value is reported as below 5.

In the case of `CC(C)(C)CC(=O)Nc1cccc(-c2nnc(Nc3ccc4[nH]ncc4c3Cl)s2)c1` [Example 35M], the IC50 is 1 to 15 µM in test [1] and below 1 µM in test [2]. For the same molecule, in test [2], the “Selectivity … (IC50 ROCK1 / IC50 ROCK2)” value is given as above 5.

`O=C(Nc1cccc(-c2nnc(Nc3ccc4[nH]ncc4c3F)s2)c1)c1c[nH]cn1` [Example 75N]: the 50% inhibitory concentration (IC50) in test [1] and in test [2] was above 30 µM each time.

Turning to `CC(C(=O)Nc1cccc(-c2nnc(Nc3ccc4[nH]ncc4c3Cl)s2)c1)c1ccc(F)cc1` (stereo not drawn) [Example 35E], the results for the IC50 in test [1] and in test [2] were 1 to 15 µM and below 1 µM, respectively. The “Selectivity … (IC50 ROCK1 / IC50 ROCK2)” value in test [2] is above 50.

On to `O=C(O)c1cccc(-c2nnc(Nc3ccc4[nH]ncc4c3)s2)c1` [Example 35CL], for which the results for the IC50 in test [1] and in test [2] were 15 to 30 µM and 1 to 15 µM, respectively.

In test [1], `Cn1ccnc1CC(=O)Nc1cccc(-c2nnc(Nc3ccc4[nH]ncc4c3Cl)s2)c1` [Example 35BL] registered an IC50 above 30 µM. Further, in test [2], the IC50 is below 1 µM and the “Selectivity … (IC50 ROCK1 / IC50 ROCK2)” value is on record as above 100.

In the case of `CC(=O)c1cc(-c2nnc(Nc3ccc4[nH]ncc4c3Cl)s2)ccn1` [Example 35CV], the IC50 in test [1] is 1 to 15 µM. Further, in test [2], the IC50 was below 1 µM and the “Selectivity … (IC50 ROCK1 / IC50 ROCK2)” value was above 50.

Regarding `COc1ccc(C(=O)Nc2cccc(-c3nnc(Nc4ccc5[nH]ncc5c4Cl)s3)c2)cc1` [Example 35BS], the concentration for half-maximal inhibition (IC50) in test [1] was below 1 µM. Moreover, in test [2], the IC50 was below 1 µM and the “Selectivity … (IC50 ROCK1 / IC50 ROCK2)” value was below 5.

Turning to `CC(C)NCC(=O)Nc1cncc(-c2nnc(Nc3ccc4[nH]ncc4c3)s2)c1` [Example A-2], the results for the IC50 in test [1] and in test [2] were 1 to 15 µM and below 1 µM, respectively. Further, the “Selectivity … (IC50 ROCK1 / IC50 ROCK2)” value in test [2] is on record as above 5.

One may read the IC50 as the concentration at which inhibition is half-maximal. Low values mean greater potency in that assay, high ones weaker potency in that assay.

Values taken from US10112935B2, “Indazolyl thiadiazolamines and related compounds for inhibition of Rho-associated protein kinase and the treatment of disease” (Lycera Corporation, priority 2015, dated 2018).
